Assay [1] addresses T1, PARP7 (Homo sapiens, UniProt Q7Z3E1).
T1 construct: purchased BPS 80527
T1 sequence (Q7Z3E1 1-657): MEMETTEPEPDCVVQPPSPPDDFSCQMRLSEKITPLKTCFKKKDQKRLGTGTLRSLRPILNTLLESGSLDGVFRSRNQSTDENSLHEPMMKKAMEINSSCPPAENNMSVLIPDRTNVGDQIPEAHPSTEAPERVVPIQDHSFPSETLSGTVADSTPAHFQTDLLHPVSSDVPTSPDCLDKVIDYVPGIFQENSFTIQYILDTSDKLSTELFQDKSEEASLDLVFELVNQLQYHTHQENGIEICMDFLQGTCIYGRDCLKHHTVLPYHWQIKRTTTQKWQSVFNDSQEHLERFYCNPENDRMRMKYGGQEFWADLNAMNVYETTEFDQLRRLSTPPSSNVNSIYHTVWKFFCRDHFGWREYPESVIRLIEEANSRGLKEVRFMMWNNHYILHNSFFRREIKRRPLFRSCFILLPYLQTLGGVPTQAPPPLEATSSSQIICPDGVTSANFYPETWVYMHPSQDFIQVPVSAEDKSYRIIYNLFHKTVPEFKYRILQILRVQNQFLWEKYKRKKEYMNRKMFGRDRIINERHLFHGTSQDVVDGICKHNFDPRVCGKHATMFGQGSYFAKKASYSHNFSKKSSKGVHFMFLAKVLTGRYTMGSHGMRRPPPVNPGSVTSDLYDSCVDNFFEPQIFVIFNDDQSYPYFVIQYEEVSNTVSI
Briefly: Inhibition of the compound on PARP7 protein activity (ADP-ribosylation, chemiluminescence). The class given is biochemical. Particulars: Histone H1 coated plate, Biotin-Labeled NAD+, 2 h at room temperature, chemiluminescence; read-out: PARP7 activity inhibition IC50.

Assay [2] concerns the target T1, PARP7. The experiment in a line: PARP7 TR-FRET binding inhibition (displacement of probe RBN011147). The following applies: TR-FRET, Biotin-labeled probe RBN011147; read-out: PARP7 binding inhibition IC50. Here is the method: The ability of the compound to substitute the probe RBN011147 (Wigle et al., 2020, Cell Chemical Biology 27, 877-887) was tested by a TR-FRET method, and IC50 was calculated to evaluate the binding ability of the compound to PARP7. […]
For orientation: In TR-FRET formats the signal depends on donor and acceptor labels being close together.

Assay [3] concerns NCI-H1373 cells. Briefly: Inhibition on NCI-H1373 cell proliferation (Cell-Titer-Glo). The class given is cell-based. Particulars: Homo sapiens, 144 h; NCI-H1373 cells, incubation for 6 days, Cell-Titer-Glo; read-out: NCI-H1373 cell proliferation inhibition IC50. On the procedure:
The inhibitory effect of the compound on PARP7 was evaluated by testing the inhibitory effect of the compound on NCI-H1373 cell proliferation.
NCI-H1373 cells (ATCC, CRL-5866) were cultured in a complete medium, namely, a RPMI-1640 medium (Gibco, 22400089) containing 10% fetal bovine serum (Corning, 35-081-CV).
Negative control wells and positive control wells were added with 50 nL DMSO (Sigma, D2650), respectively.
In "Day 0" detection plate, NCI-H1373 cells were seeded at a density of 600 cells/well (50 µL) in a complete medium into the Day 0 test wells of a 384-well detection plate (Grenier, 781091). Then, 25 µL of Cell-Titer-Glo reagent (Promega, G7573) was added to each well, followed by centrifugation at 1000 rpm at room temperature for 1 minute and incubation at room temperature under shaded conditions for 10 min. Chemiluminescence signals were collected using an Envision (Perkin Elmer, EnVision 2105) to obtain the average value of the Day 0 test values.
In "compound detection plate", NCI-H1373 cells were seeded at a density of 600 cells/well (50 µL) in a complete medium into the negative control wells and the compound detection wells of a 384-well detection plate (Grenier, 781091), and 50 µL of cell culture medium was added to the positive control wells, followed by centrifugation at 1000 rpm at room temperature for 1 minute and placing in a cell incubator at 37°C, 5% CO2 for incubation for 6 days. […] Chemiluminescence signals were collected using an Envision (Perkin Elmer, EnVision 2105). The test values for each compound well, negative control well, and positive control well were obtained.
The proliferation inhibition ratio formula is as follows: [formula]
The average value of the negative control = the average value of the Day 6 test values of each negative control well minus the average value of the Day 0 test values
The average value of the positive control = the average value of the Day 6 test values of each positive control well
The average value of the compound test = (the Day 6 test value of compound test well 1 + the Day 6 test value of compound test well 2)/2 - the average value of the Day 0 test values

Turning to `O=C(NCCCC(Nc1cn[nH]c(=O)c1C(F)(F)F)C1CC1)c1ccc(-c2ncc(C(F)(F)F)s2)cc1` (stereo not drawn) [Example 55], the IC50 in assay [1] is less than 3 nM; in assay [2], less than 10 nM; in assay [3] it was 1000 to 3000 nM.

As for `CC(CCCNC(=O)c1ccc(-c2ncc(N(C)C3CC3)s2)cc1)Nc1cn[nH]c(=O)c1C(F)(F)F` (stereo not drawn) [Example 56], the IC50 is less than 3 nM in assay [1], less than 10 nM in assay [2] and 300 to 1000 nM in assay [3].

`CC(CCCNC(=O)c1ncc(-c2ncc(N3CC(F)C3)cn2)cc1F)Nc1cn[nH]c(=O)c1C(F)(F)F` (stereo not drawn) [Example 72]: the IC50 in assay [1] is less than 3 nM; in assay [2] it was less than 10 nM; in assay [3] it was 300 to 1000 nM.

`CC(CCCNC(=O)c1ccc(-c2cc(C(F)(F)F)sn2)nc1)Nc1cn[nH]c(=O)c1C(F)(F)F` (stereo not drawn) [Example 207]: the IC50 was less than 3 nM in assay [1], 10 to 30 nM in assay [2] and 1000 to 3000 nM in assay [3].

For the molecule `O=C(NCCCC(Nc1cn[nH]c(=O)c1C(F)(F)F)C1CC1)c1cnc(-c2ncc(C(F)(F)F)s2)cn1` (stereo not drawn) [Example 54], the IC50 is 3 to 10 nM in assay [1], 10 to 30 nM in assay [2] and more than 3000 nM in assay [3].

For `CCOc1cnc(-c2ccc(C(=O)NCCCC(C)Nc3cn[nH]c(=O)c3C(F)(F)F)cc2)s1` (stereo not drawn) [Example 40], the IC50 is less than 3 nM in assay [1], 10 to 30 nM in assay [2] and more than 3000 nM in assay [3].

In the case of `Cc1c(CCC(=O)Nc2ccc(-c3ncc(C(F)(F)F)cn3)cn2)c[nH]c(=O)c1C(F)(F)F` [Example 13], the IC50 in assay [1] was less than 3 nM; in assay [2] it was 30 to 100 nM; in assay [3] it was more than 3000 nM.

In the case of `CC(CCCNC(=O)c1ccc(-n2cncn2)c(F)c1)Nc1cn[nH]c(=O)c1C(F)(F)F` (stereo not drawn) [Example 48], the IC50 was 10 to 30 nM in assay [1], 30 to 100 nM in assay [2] and more than 3000 nM in assay [3].

On to `CC(CCCNC(=O)c1ccc(-c2cc(C(F)(F)F)sn2)cc1F)Nc1cn[nH]c(=O)c1C(F)(F)F` (stereo not drawn) [Example 212], for which the IC50 is less than 3 nM in assay [1], less than 10 nM in assay [2] and less than 300 nM in assay [3].

`CC(CCCNC(=O)c1ccc(-c2csc(C(F)(F)F)n2)nc1)Nc1cn[nH]c(=O)c1C(F)(F)F` (stereo not drawn) [Example 177]: the figures for the IC50 in assay [1], in assay [2] and in assay [3] were less than 3 nM, less than 10 nM and 1000 to 3000 nM, respectively.

Regarding `CC(CCCNC(=O)c1ccc(-c2ncc(C3CC3)s2)cc1)Nc1cn[nH]c(=O)c1C(F)(F)F` (stereo not drawn) [Example 19], the IC50 is less than 3 nM in assay [1], less than 10 nM in assay [2] and 300 to 1000 nM in assay [3].

Consider `CC(CCCNC(=O)c1cnc(-n2cc(C(F)(F)F)cn2)cn1)Nc1cn[nH]c(=O)c1C(F)(F)F` (stereo not drawn) [Example 175], for which the IC50 in assay [1] is less than 3 nM; in assay [2], 10 to 30 nM; in assay [3] it was 300 to 1000 nM.

Take `CC(CCCNC(=O)c1ncc(-c2cscn2)cc1F)Nc1cn[nH]c(=O)c1C(F)(F)F` (stereo not drawn) [Example 182]: the results for the IC50 in assay [1], in assay [2] and in assay [3] were 3 to 10 nM, 30 to 100 nM and more than 3000 nM, respectively.

Take `CC(CCCNC(=O)c1cnc(-c2ncc(C(F)(F)F)s2)cn1)Nc1cc[nH]c(=O)c1C(F)(F)F` (stereo not drawn) [Example 31]: the IC50 in assay [1] is less than 3 nM; in assay [2], 10 to 30 nM; in assay [3] it was more than 3000 nM.

As for `CC(CCCNC(=O)c1ccc(-n2cc(C(F)(F)F)cn2)cc1F)Nc1cn[nH]c(=O)c1C(F)(F)F` (stereo not drawn) [Example 176], the IC50 was less than 3 nM in assay [1], less than 10 nM in assay [2] and less than 300 nM in assay [3].

For `CC(CCCNC(=O)c1cnc(-c2ncc(C(F)(F)F)s2)c(F)c1)Nc1cn[nH]c(=O)c1C(F)(F)F` (stereo not drawn) [Example 184], the results for the IC50 in assay [1], in assay [2] and in assay [3] were less than 3 nM, less than 10 nM and 300 to 1000 nM, respectively.

On to `CC(CCCNC(=O)c1ccc(-n2cccn2)nc1)Nc1cn[nH]c(=O)c1C(F)(F)F` (stereo not drawn) [Example 45], for which the figures for the IC50 in assay [1], in assay [2] and in assay [3] were 3 to 10 nM, 10 to 30 nM and more than 3000 nM, respectively.

Turning to `CC(CCCNC(=O)c1ccc(-c2nc(C(F)(F)F)no2)cc1)Nc1cn[nH]c(=O)c1C(F)(F)F` (stereo not drawn) [Example 78], the IC50 was 3 to 10 nM in assay [1], 10 to 30 nM in assay [2] and more than 3000 nM in assay [3].

As for `CC(CCCNC(=O)c1ccc(-c2cc(C(F)(F)F)nn2C)cc1)Nc1cn[nH]c(=O)c1C(F)(F)F` (stereo not drawn) [Example 245], the IC50 in assay [1] was 10 to 30 nM; in assay [2], more than 100 nM; in assay [3], more than 3000 nM.

Consider `CC(CCCNC(=O)c1ccc(-c2ncc(C(F)(F)F)s2)nc1)Nc1cn[nH]c(=O)c1C(F)(F)F` (stereo not drawn) [Example 211], for which the results for the IC50 in assay [1], in assay [2] and in assay [3] were less than 3 nM, less than 10 nM and 1000 to 3000 nM, respectively.

With `CC(CCCNC(=O)c1ccc(-c2ncn(C)n2)cc1)Nc1cn[nH]c(=O)c1C(F)(F)F` (stereo not drawn) [Example 47], the IC50 was 3 to 10 nM in assay [1], 10 to 30 nM in assay [2] and more than 3000 nM in assay [3].

Turning to `CC(CCCNC(=O)c1ccc(-n2cc(C(F)(F)F)cn2)nc1)Nc1cn[nH]c(=O)c1C(F)(F)F` (stereo not drawn) [Example 206], the IC50 in assay [1] was less than 3 nM; in assay [2], less than 10 nM; in assay [3], 1000 to 3000 nM.

Consider `CC(CCCNC(=O)c1ccc(-c2ncc(C(F)F)s2)cn1)Nc1cn[nH]c(=O)c1C(F)(F)F` (stereo not drawn) [Example 23], for which the figures for the IC50 in assay [1], in assay [2] and in assay [3] were less than 3 nM, 10 to 30 nM and 300 to 1000 nM, respectively.

In the case of `COc1cnc(-c2ccc(C(=O)NCCCC(C)Nc3cn[nH]c(=O)c3C(F)(F)F)cc2)s1` (stereo not drawn) [Example 22], the IC50 is less than 3 nM in assay [1], 10 to 30 nM in assay [2] and 1000 to 3000 nM in assay [3].

`CC(CCCNC(=O)c1ccc(-c2nc(C(F)(F)F)cs2)cc1)Nc1cn[nH]c(=O)c1C(F)(F)F` (stereo not drawn) [Example 81]: the IC50 in assay [1] was 30 to 100 nM; in assay [2], 30 to 100 nM; in assay [3], more than 3000 nM.

As to `CCCc1cnc(-c2ccc(C(=O)NCCCC(C)Nc3cn[nH]c(=O)c3C(F)(F)F)cc2)s1` (stereo not drawn) [Example 41], the IC50 in assay [1] is less than 3 nM; in assay [2], 10 to 30 nM; in assay [3] it was 300 to 1000 nM.

As to `CC(CCCNC(=O)c1ccc(-c2nnc(C(F)(F)F)s2)cc1)Nc1cn[nH]c(=O)c1C(F)(F)F` (stereo not drawn) [Example 82], the IC50 in assay [1] is 3 to 10 nM; in assay [2] it was 30 to 100 nM; in assay [3], more than 3000 nM.

As for `CC(CCCNC(=O)c1ccc(-c2cscn2)nc1)Nc1cn[nH]c(=O)c1C(F)(F)F` (stereo not drawn) [Example 60], the results for the IC50 in assay [1], in assay [2] and in assay [3] were less than 3 nM, less than 10 nM and 300 to 1000 nM, respectively.

Regarding `CC(CCCNC(=O)c1ccc(-c2ncc(C(F)F)s2)cn1)Nc1cn[nH]c(=O)c1C#N` (stereo not drawn) [Example 28], the IC50 is 30 to 100 nM in assay [1], more than 100 nM in assay [2] and more than 3000 nM in assay [3].

As to `Cc1cc(NC(C)CCCN(C)C(=O)c2cnc(-c3ncc(C(F)(F)F)cn3)cn2)c(C#N)c(=O)[nH]1` (stereo not drawn) [Example 34], the IC50 in assay [1] was 30 to 100 nM; in assay [2] it was more than 100 nM; in assay [3], more than 3000 nM.

As to `Cc1c(CCC(=O)Nc2ccc(-c3ncc(C(F)(F)F)cn3)cc2F)c[nH]c(=O)c1C(F)(F)F` [Example 53], the IC50 is 10 to 30 nM in assay [1], 30 to 100 nM in assay [2] and more than 3000 nM in assay [3].

The values above are taken from EP4800012A1, “COMPOUND ACTING AS PARP7 INHIBITOR” (Dovetree Medicines Unus, Inc., priority 2023, dated 2025).
